Results on 16 compounds are retold here after PubChem BioAssay (NCI).

Among the test systems are NCI-H23 lung; RXF 393 renal; MALME-3M melanoma; PC-3 prostate; MCF7 breast; CCRF-CEM leukemia; SK-MEL-28 melanoma; IGROV1 ovarian; HCT-116 colon; HOP-62 NSCLC.
What all share (assay): NCI tumour cell line growth inhibition, 48 h

Each structure is given as a SMILES string.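 Dose response: 5 concentrations. Exposure: 48 h. Format: 96-well plates. Endpoint: linear interpolation; highest concentration if not reached. TGI is the concentration that stops growth completely.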

Consider `CC#CCCCC1(C)CCNC1=S` (centres undefined), for which the TGI in the test on NCI-H23 lung, in the test with RXF 393 renal, with MALME-3M melanoma, with PC-3 prostate, with MCF7 breast and in the test with CCRF-CEM leukemia was over 10 µM throughout.

With `O=C(CC(C(=O)c1cccs1)c1ccsc1)c1ccc(Cl)s1` (centres undefined), the TGI in the test on SK-MEL-28 melanoma, with NCI-H23 lung, in the test on IGROV1 ovarian, in the test with MALME-3M melanoma, in the test on HCT-116 colon and in the test on PC-3 prostate was over 100 µM in each case. Also, the TGI in the test with MCF7 breast, with CCRF-CEM leukemia and in the test on HOP-62 NSCLC was over 100 µM throughout.

`COC(=O)C12Oc3ccc(-c4ccc5c(c4O)C(O)=C4C(=O)CC(C)C(O)C4(C(=O)OC)O5)c(O)c3C(O)=C1C(=O)CC(C)C2O` (centres undefined): the TGI was 0.741 µM in the test with SK-MEL-28 melanoma; over 100 µM with IGROV1 ovarian; 0.935 µM in the test on RXF 393 renal; 1.43 µM with PC-3 prostate; over 100 µM with MCF7 breast; 0.0848 µM in the test on CCRF-CEM leukemia. This compound registered a TGI in the test on HOP-62 NSCLC of 12.6 µM.

`COc1ccc(Nc2nc(N)c(C(=O)c3ccc(Cl)cc3)s2)cc1`: the TGI with SK-MEL-28 melanoma is over 100 µM; in the test on NCI-H23 lung, 6.78 µM; with IGROV1 ovarian, 17.7 µM; in the test on RXF 393 renal, 0.0323 µM; with HCT-116 colon, 6.64 µM; in the test with PC-3 prostate, 6.61 µM. Moreover, the TGI with MCF7 breast was over 32.9 µM; in the test with HOP-62 NSCLC it was 17 µM.

Regarding `COc1ccc(/C=C/C(=O)c2ccc(Br)cc2)cc1`, the TGI in the test with SK-MEL-28 melanoma, in the test with NCI-H23 lung, in the test with IGROV1 ovarian, with MALME-3M melanoma, in the test with HCT-116 colon and in the test with PC-3 prostate was over 100 µM in each case. For the same compound, the TGI in the test with MCF7 breast, in the test on CCRF-CEM leukemia and in the test with HOP-62 NSCLC was over 100 µM throughout.

As to `CSc1ncc2c(n1)-c1ccccc1OC2`, the TGI in the test with NCI-H23 lung, in the test on IGROV1 ovarian, in the test on RXF 393 renal, in the test on HCT-116 colon, with PC-3 prostate and in the test with MCF7 breast was over 100 µM in each case. Also, in the test with CCRF-CEM leukemia, the TGI is over 100 µM.

Turning to `O=C(NC1C/C(=N/O)c2c(Br)sc(Br)c21)C(F)(F)F` (centres undefined), the TGI with NCI-H23 lung was over 100 µM; with IGROV1 ovarian it was over 100 µM; in the test on RXF 393 renal it was over 100 µM; with MALME-3M melanoma it was over 100 µM; in the test with HCT-116 colon it was 30.9 µM; with PC-3 prostate it was 45.6 µM. Besides, the TGI with MCF7 breast was over 100 µM; in the test with CCRF-CEM leukemia, 48.5 µM.

Regarding `CCOS(=O)(=O)c1ccc(-c2c3nc(c(-c4ccc(S(=O)(=O)OCC)cc4)c4ccc([nH]4)c(-c4ccc(S(=O)(=O)OCC)cc4)c4nc(c(-c5ccc(S(=O)(=O)OCC)cc5)c5ccc2[nH]5)C=C4)C=C3)cc1`, the TGI in the test on NCI-H23 lung was over 31.6 µM; in the test on IGROV1 ovarian, over 100 µM; in the test on RXF 393 renal, over 31.6 µM; in the test on MALME-3M melanoma, over 31.6 µM; in the test with HCT-116 colon, over 31.6 µM; in the test with PC-3 prostate, over 31.6 µM. The TGI in the test with MCF7 breast and with CCRF-CEM leukemia was over 31.6 µM each time.

In the case of `C=CCOC(=O)Cn1ccc(=O)[nH]c1=O`, the TGI with SK-MEL-28 melanoma, in the test with NCI-H23 lung, in the test with IGROV1 ovarian, in the test on MALME-3M melanoma, in the test on HCT-116 colon and in the test on PC-3 prostate was over 100 µM in each case. The TGI in the test on MCF7 breast, in the test with CCRF-CEM leukemia and in the test with HOP-62 NSCLC was over 100 µM throughout.

For `COc1ccc(N2C(=O)/C(=C/c3ccc(N(CCC#N)CCC#N)cc3)N=C2c2ccccc2)cc1`, the TGI in the test with SK-MEL-28 melanoma, in the test with IGROV1 ovarian, with RXF 393 renal, in the test on MALME-3M melanoma, in the test on HCT-116 colon and in the test with PC-3 prostate was over 100 µM each time. Also, the TGI in the test with MCF7 breast and with HOP-62 NSCLC was over 100 µM each time.

With `O=C1Nc2ccc(Br)cc2/C1=N/N1C(=O)C(=O)N(C2CCCCC2)C1=S`, the TGI amounted to 19 µM in the test on SK-MEL-28 melanoma; 20.3 µM in the test with NCI-H23 lung; 21.8 µM in the test on RXF 393 renal; 22.3 µM in the test with MALME-3M melanoma; 10.8 µM with HCT-116 colon; 25.9 µM in the test with PC-3 prostate. The TGI with MCF7 breast was determined as 15.6 µM; in the test with CCRF-CEM leukemia, 16.6 µM; in the test with HOP-62 NSCLC, 14.3 µM.

Consider `O=C1CN(c2cccc(C(F)(F)F)c2)C(=O)CN1CCN1CC(=O)N(c2cccc(C(F)(F)F)c2)CC1=O`, for which the TGI with SK-MEL-28 melanoma, in the test with IGROV1 ovarian, in the test on HCT-116 colon, with PC-3 prostate, in the test on MCF7 breast and in the test with CCRF-CEM leukemia was over 100 µM each time. Moreover, the TGI with HOP-62 NSCLC was over 100 µM.

`O=C(NC1=C(Cl)C(=O)c2ccccc2C1=O)C(=O)C(C(=O)c1ccc2ccccc2c1)C1OC(=O)c2ccccc21` (centres undefined): the TGI is 14.5 µM in the test on SK-MEL-28 melanoma; 13.4 µM in the test on NCI-H23 lung; 27 µM in the test with IGROV1 ovarian; 12.8 µM with RXF 393 renal; 4.16 µM in the test on MALME-3M melanoma; 10.5 µM in the test on HCT-116 colon. Also, the results for the TGI in the test on MCF7 breast, in the test with CCRF-CEM leukemia and in the test on HOP-62 NSCLC were 16.8 µM, 26.9 µM and 20.2 µM, respectively.

As to `O=C1CC(c2ccccc2)n2c(nc3ccccc32)N1` (centres undefined), the TGI with NCI-H23 lung, in the test with IGROV1 ovarian, in the test with RXF 393 renal, in the test on MALME-3M melanoma, in the test on HCT-116 colon and with PC-3 prostate was over 100 µM throughout. The TGI in the test on MCF7 breast and with HOP-62 NSCLC was over 100 µM throughout.

For the compound `Cc1nc2ccc(NC3OCC(O)C(O)C3O)cc2c(=O)n1-c1ccccc1` (centres undefined), the TGI with SK-MEL-28 melanoma, in the test on NCI-H23 lung, in the test with IGROV1 ovarian, in the test with RXF 393 renal, in the test on MALME-3M melanoma and in the test with HCT-116 colon was over 100 µM each time. Besides, the TGI in the test with PC-3 prostate, with MCF7 breast and in the test on HOP-62 NSCLC was over 100 µM throughout.

Turning to `Cn1cc2c3ccccc3nc-2c2ccccc21`, the TGI amounted to 6.43 µM in the test with SK-MEL-28 melanoma; 3.15 µM in the test on NCI-H23 lung; 5.78 µM with MALME-3M melanoma; 3.2 µM in the test with HCT-116 colon; 5.78 µM in the test on PC-3 prostate; 10 µM in the test with MCF7 breast. For the same compound, the TGI in the test on CCRF-CEM leukemia turned out to be 5.99 µM; with HOP-62 NSCLC, 4.16 µM.
